The supplement of paper PMC11208160

Test: recombinant UMI read abundance after kanamycin selection (control-corrected) (log10(CPM+1)); higher = more efficient recombination; extreme values may be limits of the assay; sequences stand for … in AGTGCAGAGAAAATCGGCCAGTTTTCTCTGCCTGCAGTCCGCATGCCGTGGGACCCCTTGGGTTCTAACCTGTTGCCTAGATTTATGCAGCGGACTGCCTTTCTCCCAAAGTGATAAACCGG…AGGTTGGTTTCACT; site = the 11-nt donor
In short: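 For the IS621 bridge recombinase, a pooled Escherichia coli screen tested donor and donor-binding-loop pairs. Cells received the pair library together with a target plasmid encoding a fixed target and T7-inducible recombinase, then went onto IPTG (0.07 mM) plus kanamycin or unselected plates in duplicate. After PCR across the donor–target junction and sequencing, recombinant UMI counts were normalized to CPM, averaged, and scaled by control-derived factors. Each value is given as log10(CPM+1).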

Row | Sequence | recombinant UMI read abundance (log10)
1 | GGAGTGCCATGGACCGGTTTTCCCGGTAATCCGTATTTGGA (site GGAGTGCCTTC) | 0.0188
2 | GGAGTGTCATGGACCGGTTTTCCCGGTAATCCGTATTTGGT (site GGAGTGACTAC) | 0.192
3 | GGAGTGTCATGGACCGGTTTTCCCGGTAATCCGTATTTGGT (site GGAGTGCCTAC) | 0.00939
4 | GGAGTGTCATGGACCGGTTTTCCCGGTAATCCGTATTTGGT (site GGAGTGGCTAC) | 0.0122
5 | GGAGTGTCATGGACCGGTTTTCCCGGTAATCCGTATTTGGT (site GGAGTGTCTAC) | 1.71
6 | GGATAATCATGGACCGGTTTTCCCGGTAATCCGTATTTGAA (site GGATAATCTTT) | 2.84
7 | GGATAGACATGGACCGGTTTTCCCGGTAATCCGTATTTGAC (site GGATAGACTGA) | 0
8 | GGATAGACATGGACCGGTTTTCCCGGTAATCCGTATTTGAC (site GGATAGACTGC) | 0.822
9 | GGATAGACATGGACCGGTTTTCCCGGTAATCCGTATTTGAC (site GGATAGACTGG) | 1.9
10 | GGATAGACATGGACCGGTTTTCCCGGTAATCCGTATTTGAC (site GGATAGACTGT) | 3.21
11 | GGATAGACATGGACCGGTTTTCCCGGTAATCCGTATTTGCC (site AGATAGACTGG) | 2.1
12 | GGATAGACATGGACCGGTTTTCCCGGTAATCCGTATTTGCC (site CGATAGACTGG) | 0.635
13 | GGATAGACATGGACCGGTTTTCCCGGTAATCCGTATTTGCC (site GAATAGACTGG) | 1.5
14 | GGATAGACATGGACCGGTTTTCCCGGTAATCCGTATTTGCC (site GCATAGACTGG) | 2.11
15 | GGATAGACATGGACCGGTTTTCCCGGTAATCCGTATTTGCC (site GGAAAGACTGG) | 0
16 | GGATAGACATGGACCGGTTTTCCCGGTAATCCGTATTTGCC (site GGACAGACTGG) | 2.55
17 | GGATAGACATGGACCGGTTTTCCCGGTAATCCGTATTTGCC (site GGAGAGACTGG) | 0
18 | GGATAGACATGGACCGGTTTTCCCGGTAATCCGTATTTGCC (site GGATAAACTGG) | 2.06
19 | GGATAGACATGGACCGGTTTTCCCGGTAATCCGTATTTGCC (site GGATACACTGG) | 1.54
20 | GGATAGACATGGACCGGTTTTCCCGGTAATCCGTATTTGCC (site GGATAGACTAG) | 0.852
21 | GGATAGACATGGACCGGTTTTCCCGGTAATCCGTATTTGCC (site GGATAGACTCG) | 0.799
22 | GGATAGACATGGACCGGTTTTCCCGGTAATCCGTATTTGCC (site GGATAGACTGA) | 1.38
23 | GGATAGACATGGACCGGTTTTCCCGGTAATCCGTATTTGCC (site GGATAGACTGC) | 0
24 | GGATAGACATGGACCGGTTTTCCCGGTAATCCGTATTTGCC (site GGATAGACTGG) | 2.73
25 | GGATAGACATGGACCGGTTTTCCCGGTAATCCGTATTTGCC (site GGATAGACTGT) | 1.32

Row | Sequence | recombinant UMI read abundance (log10)
26 | GGATAGACATGGACCGGTTTTCCCGGTAATCCGTATTTGCC (site GGATAGACTTG) | 1.75
27 | GGATAGACATGGACCGGTTTTCCCGGTAATCCGTATTTGCC (site GGATAGCCTGG) | 0.943
28 | GGATAGACATGGACCGGTTTTCCCGGTAATCCGTATTTGCC (site GGATAGGCTGG) | 1.98
29 | GGATAGACATGGACCGGTTTTCCCGGTAATCCGTATTTGCC (site GGATAGTCTGG) | 1.62
30 | GGATAGACATGGACCGGTTTTCCCGGTAATCCGTATTTGCC (site GGATATACTGG) | 2.8
31 | GGATAGACATGGACCGGTTTTCCCGGTAATCCGTATTTGCC (site GGATCGACTGG) | 0
32 | GGATAGACATGGACCGGTTTTCCCGGTAATCCGTATTTGCC (site GGATGGACTGG) | 0
33 | GGATAGACATGGACCGGTTTTCCCGGTAATCCGTATTTGCC (site GGATTGACTGG) | 0
34 | GGATAGACATGGACCGGTTTTCCCGGTAATCCGTATTTGCC (site GGCTAGACTGG) | 1.03
35 | GGATAGACATGGACCGGTTTTCCCGGTAATCCGTATTTGCC (site GGGTAGACTGG) | 0.24
36 | GGATAGACATGGACCGGTTTTCCCGGTAATCCGTATTTGCC (site GGTTAGACTGG) | 1.09
37 | GGATAGACATGGACCGGTTTTCCCGGTAATCCGTATTTGCC (site GTATAGACTGG) | 1.89
38 | GGATAGACATGGACCGGTTTTCCCGGTAATCCGTATTTGCC (site TGATAGACTGG) | 2.09
39 | GGATAGACATGGACCGGTTTTCCCGGTAATCCGTATTTGGC (site GGATAGACTGA) | 1.7
40 | GGATAGACATGGACCGGTTTTCCCGGTAATCCGTATTTGGC (site GGATAGACTGC) | 2.35
41 | GGATAGACATGGACCGGTTTTCCCGGTAATCCGTATTTGGC (site GGATAGACTGG) | 0
42 | GGATAGACATGGACCGGTTTTCCCGGTAATCCGTATTTGGC (site GGATAGACTGT) | 2.32
43 | GGATAGACATGGACCGGTTTTCCCGGTAATCCGTATTTGTC (site GGATAGACTGA) | 3.09
44 | GGATAGACATGGACCGGTTTTCCCGGTAATCCGTATTTGTC (site GGATAGACTGC) | 0.855
45 | GGATAGACATGGACCGGTTTTCCCGGTAATCCGTATTTGTC (site GGATAGACTGG) | 2.1
46 | GGATAGACATGGACCGGTTTTCCCGGTAATCCGTATTTGTC (site GGATAGACTGT) | 1.81
47 | GGATAGTCATGGACCGGTTTTCCCGGTAATCCGTATTTGCT (site GGATAGTCTAG) | 3.17
48 | GGATATACATGGACCGGTTTTCCCGGTAATCCGTATTTGAT (site GGATATACTAT) | 2.03
49 | GGATCGACATGGACCGGTTTTCCCGGTAATCCGTATTTGTA (site GGATCGACTTA) | 0.775
50 | GGATCGTCATGGACCGGTTTTCCCGGTAATCCGTATTTGCT (site CGATCATCTAG) | 0.402

Row | Sequence | recombinant UMI read abundance (log10)
51 | GGATCGTCATGGACCGGTTTTCCCGGTAATCCGTATTTGCT (site GGATCGTCTAG) | 2.28
52 | GGATGAACATGGACCGGTTTTCCCGGTAATCCGTATTTGTT (site GGATGAACTAA) | 1.78
53 | GGATTCACATGGACCGGTTTTCCCGGTAATCCGTATTTGTT (site GGATTCACTAA) | 1.44
54 | GGATTGGCATGGACCGGTTTTCCCGGTAATCCGTATTTGGT (site GGAATGGCTAC) | 0.341
55 | GGATTGGCATGGACCGGTTTTCCCGGTAATCCGTATTTGGT (site GGACTGGCTAC) | 0.611
56 | GGATTGGCATGGACCGGTTTTCCCGGTAATCCGTATTTGGT (site GGAGTGGCTAC) | 0.0175
57 | GGATTGGCATGGACCGGTTTTCCCGGTAATCCGTATTTGGT (site GGATTGGCTAC) | 1.46
58 | GGCAAACCATGGACCGGTTTTCCCGGTAATCCGTATTTGGT (site GACAAACCTAC) | 0
59 | GGCAAACCATGGACCGGTTTTCCCGGTAATCCGTATTTGGT (site GCCAAACCTAC) | 0
60 | GGCAAACCATGGACCGGTTTTCCCGGTAATCCGTATTTGGT (site GGCAAACCTAC) | 0
61 | GGCAAACCATGGACCGGTTTTCCCGGTAATCCGTATTTGGT (site GTCAAACCTAC) | 0
62 | GGCAACCCATGGACCGGTTTTCCCGGTAATCCGTATTTGAA (site GGCAAACCTTT) | 0
63 | GGCAACCCATGGACCGGTTTTCCCGGTAATCCGTATTTGAA (site GGCAACCCTTT) | 0.0234
64 | GGCAACCCATGGACCGGTTTTCCCGGTAATCCGTATTTGAA (site GGCAAGCCTTT) | 0
65 | GGCAACCCATGGACCGGTTTTCCCGGTAATCCGTATTTGAA (site GGCAATCCTTT) | 0.00284
66 | GGCAATCCATGGACCGGTTTTCCCGGTAATCCGTATTTGAT (site GGCAATCCTAT) | 0.192
67 | GGCAATCCATGGACCGGTTTTCCCGGTAATCCGTATTTGAT (site GGCAATCCTCT) | 0.0105
68 | GGCAATCCATGGACCGGTTTTCCCGGTAATCCGTATTTGAT (site GGCAATCCTGT) | 0
69 | GGCAATCCATGGACCGGTTTTCCCGGTAATCCGTATTTGAT (site GGCAATCCTTT) | 0.00349
70 | GGCAATCCATGGACCGGTTTTCCCGGTAATCCGTATTTGCA (site GGCAATCCTTA) | 0.227
71 | GGCAATCCATGGACCGGTTTTCCCGGTAATCCGTATTTGCA (site GGCAATCCTTC) | 0.0145
72 | GGCAATCCATGGACCGGTTTTCCCGGTAATCCGTATTTGCA (site GGCAATCCTTG) | 0
73 | GGCAATCCATGGACCGGTTTTCCCGGTAATCCGTATTTGCA (site GGCAATCCTTT) | 0.0136
74 | GGCAATTCATGGACCGGTTTTCCCGGTAATCCGTATTTGAA (site GGCAATACTTT) | 0.0193
75 | GGCAATTCATGGACCGGTTTTCCCGGTAATCCGTATTTGAA (site GGCAATCCTTT) | 0.0153
